Experimental data reported in PMC5891061, “Electrophysiological mechanisms of vandetanib-induced cardiotoxicity: Comparison of action potentials in rabbit Purkinje fibers and pluripotent stem cell-derived cardiomyocytes” (PLoS ONE, 2018).

Columns and labels:
[1] = target: Ca2+-specific inward current (ICa) (Rattus norvegicus, UniProt P22002); assay: Whole-cell patch clamp, ICa in isolated rat ventricular myocytes; assay type: cell-based
From the text: For various aspects of cardiac ion channel study, human embryonic kidney (HEK293; ATCC, Manassas, VA, USA) cells were transiently transfected using lipofectAmin2000 (Gibco BRL, New York, NY, USA) according to the manufacturer’s instructions. The hERG (human ether-ago-go-related gene corresponding to IKr), KCNQ1/KCNE1 (the gene corresponding to IKs), KCNJ2 (the gene corresponding to IK1) or SCN5A (the gene corresponding to INa) cDNA was co-transfected with green fluorescence protein, the surface marker protein, to allow assessment of the transfection efficiency. For the calcium current, enzymatically isolated single rat ventricular myocytes were used. Briefly, the hearts were rapidly excised from anaesthetized Sprague–Dawley rats (250–350 g) and perfused via the aorta on a Langendorff apparatus with an oxygenated normal Tyrode (NT) solution for 5 min. To clear the blood, then perfused with Ca^2+-free normal Tyrode solution for 3 min. […]
The external solution for recording the IhERG, IKs and INa channel currents was NT solution. […] The calcium current was measured in naïve rat ventricular myocytes, cells were superfused with an external solution that consisted of (in mM): 137 choline-Cl, 5 CsCl, 0.5 MgCl2, 2 4-AP, 10 HEPES, 10 glucose and 1.8 CaCl2 (pH 7.4 with NaOH), whereas the intracellular solution used to fill the pipette had the following ionic solution (in mM): 20 CsCl, 100 Cs-aspartate, 10 EGTA, 10 HEPES, 20 TEA-Cl, 5 Mg-ATP (pH 7.25 with KOH). […]
pCLAMP (Axon Instruments, Foster City, CA, USA), Origin 8 (OriginLab Corp, Northampton, MA, USA), and Excel (Microsoft, Redmond, WA, USA) were used for data acquisition and analysis. The concentration–response relationships for drug-induced blockage were calculated using SigmaPlot (Systat Software, San Jose, CA, USA). […] Statistical significance was determined using the Student’s t-test and one-way ANOVA with post hoc testing using Dunnett’s method; p < 0.05 was considered to indicate statistical significance. […]

S624A hERG = S624A hERG (Homo sapiens, UniProt Q12809, S624A); settings: 3 μM
From the text: (§1) The hERG mutations were constructed by site-directed mutagenesis of WT hERG cDNA in pcDNA3.1 vector using the QuickChange Site-Directed Mutagenesis Kit (Stratagene), and the integrity of the construct was verified by DNA sequencing. The WT hERG (generously donated by Professor Ho, Seoul National University, Korea) and mutant channels were transiently expressed in an HEK-293 cell line using Lipofectamine 2000 (Gibco), according to the manufacturer’s recommendations.

[2] = target: WT hERG (inward tail current) (Homo sapiens, UniProt Q12809); settings: human, HEK-293 cells transiently expressing wild-type hERG
From the text: as §1

T623A hERG = T623A hERG (Homo sapiens, UniProt Q12809, T623A); settings: 3 μM
From the text: as §1

WT (inward) hERG = WT (inward) hERG (Homo sapiens, UniProt Q12809); settings: 3 μM, -120 mV, high K+
From the text: as §1

INa in hiPSC-CMs = INa in hiPSC-CMs (Homo sapiens, UniProt Q14524); assay: INa current in hiPSC-CMs (voltage clamp); assay type: cell-based; parameters: INa current: unit not given here
F656A hERG [3] = target: T1, F656A hERG (Homo sapiens, UniProt Q12809, F656A); assay: in vitro; settings: HEK-293 cells transiently expressing F656A mutant hERG
F656A hERG [4] = target: T1, F656A hERG; settings: 3 μM, -120 mV, high K+
WT hERG = WT hERG (Homo sapiens, UniProt Q12809); assay: Alanine scanning: wild-type hERG current in HEK-293 cells
From the text: as §1

Ca2+-specific inward current (ICa), sequence (P22002 whole entry, other chains not shown): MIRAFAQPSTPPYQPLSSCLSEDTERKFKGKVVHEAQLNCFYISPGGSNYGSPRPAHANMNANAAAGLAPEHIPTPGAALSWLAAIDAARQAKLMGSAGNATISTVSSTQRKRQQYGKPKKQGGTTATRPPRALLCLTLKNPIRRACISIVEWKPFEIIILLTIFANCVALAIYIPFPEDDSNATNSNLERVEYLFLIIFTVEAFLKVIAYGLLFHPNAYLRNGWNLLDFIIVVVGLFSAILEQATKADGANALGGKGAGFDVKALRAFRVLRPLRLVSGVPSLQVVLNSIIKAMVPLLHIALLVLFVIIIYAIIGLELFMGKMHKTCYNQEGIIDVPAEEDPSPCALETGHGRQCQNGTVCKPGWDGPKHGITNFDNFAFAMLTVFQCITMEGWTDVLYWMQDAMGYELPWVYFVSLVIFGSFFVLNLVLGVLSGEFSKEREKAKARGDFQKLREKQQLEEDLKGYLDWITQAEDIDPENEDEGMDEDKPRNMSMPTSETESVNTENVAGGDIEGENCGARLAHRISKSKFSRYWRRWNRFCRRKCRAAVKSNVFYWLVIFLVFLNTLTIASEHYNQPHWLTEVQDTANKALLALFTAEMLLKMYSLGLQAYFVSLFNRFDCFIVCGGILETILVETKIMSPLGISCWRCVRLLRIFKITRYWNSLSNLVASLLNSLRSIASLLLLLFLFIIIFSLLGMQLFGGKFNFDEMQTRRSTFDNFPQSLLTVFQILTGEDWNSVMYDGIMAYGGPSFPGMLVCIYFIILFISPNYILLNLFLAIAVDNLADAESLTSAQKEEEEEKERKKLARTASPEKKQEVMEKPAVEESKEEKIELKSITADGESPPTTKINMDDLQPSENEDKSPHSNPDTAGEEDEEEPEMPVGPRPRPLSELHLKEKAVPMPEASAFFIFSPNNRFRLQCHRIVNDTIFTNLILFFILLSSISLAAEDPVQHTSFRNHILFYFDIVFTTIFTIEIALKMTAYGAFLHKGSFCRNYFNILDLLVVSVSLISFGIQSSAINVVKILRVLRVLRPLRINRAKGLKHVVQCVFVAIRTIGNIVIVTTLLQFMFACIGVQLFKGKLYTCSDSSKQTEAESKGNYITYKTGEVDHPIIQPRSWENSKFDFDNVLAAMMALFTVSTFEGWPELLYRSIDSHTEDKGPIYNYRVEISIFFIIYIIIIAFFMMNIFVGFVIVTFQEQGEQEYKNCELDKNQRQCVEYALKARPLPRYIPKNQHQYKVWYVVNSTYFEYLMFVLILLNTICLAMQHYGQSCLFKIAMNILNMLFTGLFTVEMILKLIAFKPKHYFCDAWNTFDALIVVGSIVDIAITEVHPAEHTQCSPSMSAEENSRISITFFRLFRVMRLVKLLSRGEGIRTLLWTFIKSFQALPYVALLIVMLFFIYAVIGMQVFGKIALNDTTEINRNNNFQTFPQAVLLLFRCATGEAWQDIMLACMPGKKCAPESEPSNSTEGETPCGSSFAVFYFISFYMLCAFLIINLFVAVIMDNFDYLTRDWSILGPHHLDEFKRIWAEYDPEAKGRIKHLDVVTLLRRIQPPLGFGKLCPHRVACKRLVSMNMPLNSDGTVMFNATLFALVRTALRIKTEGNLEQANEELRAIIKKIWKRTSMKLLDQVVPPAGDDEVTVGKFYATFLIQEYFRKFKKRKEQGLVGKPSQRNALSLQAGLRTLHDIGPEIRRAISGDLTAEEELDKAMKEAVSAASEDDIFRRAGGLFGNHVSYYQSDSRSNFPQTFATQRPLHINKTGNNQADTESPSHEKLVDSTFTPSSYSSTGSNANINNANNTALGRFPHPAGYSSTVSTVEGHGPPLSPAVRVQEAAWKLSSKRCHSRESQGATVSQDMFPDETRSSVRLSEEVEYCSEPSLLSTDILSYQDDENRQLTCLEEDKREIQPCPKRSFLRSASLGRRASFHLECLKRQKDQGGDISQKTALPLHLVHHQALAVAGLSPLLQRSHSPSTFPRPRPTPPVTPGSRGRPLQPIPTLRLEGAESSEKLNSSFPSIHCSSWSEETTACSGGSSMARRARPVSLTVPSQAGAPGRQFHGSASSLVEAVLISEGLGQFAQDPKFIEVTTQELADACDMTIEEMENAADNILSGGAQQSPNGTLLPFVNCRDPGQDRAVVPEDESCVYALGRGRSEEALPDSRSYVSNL
Ca2+-specific inward current (ICa), sequence (P54290 25-1091 partner, other chains not shown): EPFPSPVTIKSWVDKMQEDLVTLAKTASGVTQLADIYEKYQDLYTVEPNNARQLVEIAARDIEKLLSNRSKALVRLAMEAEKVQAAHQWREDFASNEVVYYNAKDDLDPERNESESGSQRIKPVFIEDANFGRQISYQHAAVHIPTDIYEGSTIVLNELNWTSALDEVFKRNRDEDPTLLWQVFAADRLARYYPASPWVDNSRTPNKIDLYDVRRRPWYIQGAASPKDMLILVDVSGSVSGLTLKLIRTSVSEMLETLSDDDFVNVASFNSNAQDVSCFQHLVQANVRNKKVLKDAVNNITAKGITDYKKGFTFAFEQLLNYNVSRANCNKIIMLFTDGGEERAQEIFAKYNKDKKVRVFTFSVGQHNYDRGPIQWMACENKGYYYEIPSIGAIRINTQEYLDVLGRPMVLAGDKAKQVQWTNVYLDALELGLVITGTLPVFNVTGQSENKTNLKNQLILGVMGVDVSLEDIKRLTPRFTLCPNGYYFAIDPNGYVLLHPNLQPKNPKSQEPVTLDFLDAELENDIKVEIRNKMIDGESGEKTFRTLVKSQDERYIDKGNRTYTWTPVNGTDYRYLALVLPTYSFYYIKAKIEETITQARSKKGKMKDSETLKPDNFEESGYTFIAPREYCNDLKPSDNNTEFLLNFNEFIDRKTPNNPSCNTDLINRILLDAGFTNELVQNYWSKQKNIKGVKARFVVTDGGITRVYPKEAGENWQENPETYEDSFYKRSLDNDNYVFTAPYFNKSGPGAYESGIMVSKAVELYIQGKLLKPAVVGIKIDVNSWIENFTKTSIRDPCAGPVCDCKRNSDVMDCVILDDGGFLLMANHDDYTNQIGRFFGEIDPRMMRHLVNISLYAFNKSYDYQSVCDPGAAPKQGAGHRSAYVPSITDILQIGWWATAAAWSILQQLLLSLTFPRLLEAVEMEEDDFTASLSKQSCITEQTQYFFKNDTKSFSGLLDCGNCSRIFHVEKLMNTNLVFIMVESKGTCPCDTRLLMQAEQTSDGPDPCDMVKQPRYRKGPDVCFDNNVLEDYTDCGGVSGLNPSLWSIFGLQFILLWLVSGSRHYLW
INa in hiPSC-CMs, sequence (Q14524 212-1075 limits assumed): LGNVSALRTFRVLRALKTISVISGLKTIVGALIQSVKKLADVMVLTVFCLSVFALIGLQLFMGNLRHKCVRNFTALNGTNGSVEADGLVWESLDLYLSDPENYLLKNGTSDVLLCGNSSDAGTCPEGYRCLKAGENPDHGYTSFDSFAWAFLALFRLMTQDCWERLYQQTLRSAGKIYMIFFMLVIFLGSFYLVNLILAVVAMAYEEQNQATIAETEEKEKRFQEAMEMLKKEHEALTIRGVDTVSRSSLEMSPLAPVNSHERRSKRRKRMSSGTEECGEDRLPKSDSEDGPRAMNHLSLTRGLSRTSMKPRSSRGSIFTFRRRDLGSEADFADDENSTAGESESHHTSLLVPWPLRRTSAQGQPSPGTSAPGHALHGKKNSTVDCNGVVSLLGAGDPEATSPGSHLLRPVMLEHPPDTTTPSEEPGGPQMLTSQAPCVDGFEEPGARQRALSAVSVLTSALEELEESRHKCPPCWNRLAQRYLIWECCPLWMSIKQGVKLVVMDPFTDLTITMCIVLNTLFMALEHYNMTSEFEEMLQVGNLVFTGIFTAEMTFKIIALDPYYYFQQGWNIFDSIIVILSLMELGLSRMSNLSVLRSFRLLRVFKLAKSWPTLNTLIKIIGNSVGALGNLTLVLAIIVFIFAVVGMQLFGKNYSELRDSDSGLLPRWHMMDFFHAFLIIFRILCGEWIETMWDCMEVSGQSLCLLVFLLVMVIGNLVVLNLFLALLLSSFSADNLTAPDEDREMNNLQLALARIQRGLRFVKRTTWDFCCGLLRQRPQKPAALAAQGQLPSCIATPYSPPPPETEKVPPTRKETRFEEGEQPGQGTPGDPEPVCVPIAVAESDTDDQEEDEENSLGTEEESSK
INa in hiPSC-CMs, sequence (Q14524 1131-2016 limits assumed): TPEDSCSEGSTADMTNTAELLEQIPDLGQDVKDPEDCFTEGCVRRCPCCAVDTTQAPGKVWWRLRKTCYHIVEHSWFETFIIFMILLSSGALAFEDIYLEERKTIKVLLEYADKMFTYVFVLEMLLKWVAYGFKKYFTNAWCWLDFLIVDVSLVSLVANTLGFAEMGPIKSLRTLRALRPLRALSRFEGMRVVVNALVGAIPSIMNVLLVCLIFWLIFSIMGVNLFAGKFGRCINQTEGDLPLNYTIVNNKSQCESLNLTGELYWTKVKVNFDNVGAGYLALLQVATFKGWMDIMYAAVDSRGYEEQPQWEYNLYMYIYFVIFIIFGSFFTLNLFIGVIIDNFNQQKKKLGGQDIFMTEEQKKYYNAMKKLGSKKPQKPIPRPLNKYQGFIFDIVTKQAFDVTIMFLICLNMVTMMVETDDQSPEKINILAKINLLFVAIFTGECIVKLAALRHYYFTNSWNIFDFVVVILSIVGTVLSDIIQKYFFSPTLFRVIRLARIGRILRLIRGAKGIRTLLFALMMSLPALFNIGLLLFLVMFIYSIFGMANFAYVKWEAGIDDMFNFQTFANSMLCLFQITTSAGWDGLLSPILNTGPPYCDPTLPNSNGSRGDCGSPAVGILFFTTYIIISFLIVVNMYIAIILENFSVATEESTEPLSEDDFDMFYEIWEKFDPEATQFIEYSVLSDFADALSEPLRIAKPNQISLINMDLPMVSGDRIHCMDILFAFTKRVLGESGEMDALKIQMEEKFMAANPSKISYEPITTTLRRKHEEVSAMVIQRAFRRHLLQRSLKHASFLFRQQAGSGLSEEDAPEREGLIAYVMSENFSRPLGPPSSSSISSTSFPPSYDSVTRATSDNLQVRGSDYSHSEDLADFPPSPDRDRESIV

ICa current ([1]; 10 μM): -1639.5 ± 238.1
ICa current ([1]; 30 μM): -990.7 ± 97.8
ICa current ([1]; 100 μM): -219.7 ± 24.4
IC50 (INa in hiPSC-CMs): 2720 nM
INa current (INa in hiPSC-CMs; 1 μM): -4046.1 ± 53.7
INa current (INa in hiPSC-CMs; 3 μM): -2284.0 ± 79.5
INa current (INa in hiPSC-CMs; 10 μM): -1205.7 ± 89.8
INa current (INa in hiPSC-CMs; 30 μM): -643.2 ± 33.6
SMILES: COc1cc2c(Nc3ccc(Br)cc3F)ncnc2cc1OCC1CCN(C)CC1 [Vandetanib]
S624A hERG current (S624A hERG): 78.1 ± 31.0
inhibition at 3 μM [2]: 69 ± 1.8%
T623A hERG current (T623A hERG): 266.1 ± 117.0
WT (inward) hERG current (WT (inward) hERG): -1818.9 ± 217.3
inhibition at 3 μM (F656A hERG [3]): 27.4 ± 4.8%
F656A hERG current (F656A hERG [4]): -1101.9 ± 122.4
WT hERG current (WT hERG; 3 μM): 208.9 ± 21.6
inhibition at 3 μM (WT hERG; human, HEK-293 cells transiently expressing wild-type hERG): ~86.4%
